The target in the experiment is T1, human LPA1 (Homo sapiens, UniProt Q92633).
T1 construct: expressed in transfected cells; host or cells: Chinese hamster ovary (CHO) cells
Briefly: LPA1 functional antagonist assay (calcium flux). It counts as cell-based. The note with it: CHO cells overexpressing human LPA1; inhibition of calcium flux induced by 10 nM LPA; read-out: hLPA1 IC50. The protocol:
The effectiveness of compounds of the present invention as LPA1 inhibitors can be determined in an LPA1 functional antagonist assay as follows:
Chinese hamster ovary cells overexpressing human LPA1 were plated overnight (15,000 cells/well) in poly-D-lysine coated 384-well microplates (Greiner bio-one, Cat #781946) in DMEM/F12 medium (Gibco, Cat #11039). Following overnight culture, cells were loaded with calcium indicator dye (AAT Bioquest Inc, Cat #34601) for 30 minutes at 37° C. The cells were then equilibrated to room temperature for 30 minutes before the assay. Test compounds solubilized in DMSO were transferred to 384 well non-binding surface plates (Corning, Cat #3575) using the Labcyte Echo acoustic dispense and diluted with assay buffer [1×HBSS with calcium/magnesium (Gibco Cat #14025-092), 20 mM HEPES (Gibco Cat #15630-080) and 0.1% fatty acid free BSA (Sigma Cat #A9205)] to a final concentration of 0.5% DMSO. Diluted compounds were added to the cells by FDSS6000 (Hamamatsu) at final concentrations ranging from 0.08 nM to 5 μM. and were then incubated for 20 min at room temperature at which time LPA (Avanti Polar Lipids Cat #857130C) was added at final concentrations of 10 nM to stimulate the cells. The compound IC50 value was defined as the concentration of test compound which inhibited 50% of the calcium flux induced by LPA alone. IC50 values were determined by fitting data to a 4-parameter logistic equation (GraphPad Prism, San Diego Calif.).
On the technique in general: Calcium assays in cells follow changes in intracellular calcium, usually with a dye or a luminescent sensor.

T1 sequence (Q92633 whole entry): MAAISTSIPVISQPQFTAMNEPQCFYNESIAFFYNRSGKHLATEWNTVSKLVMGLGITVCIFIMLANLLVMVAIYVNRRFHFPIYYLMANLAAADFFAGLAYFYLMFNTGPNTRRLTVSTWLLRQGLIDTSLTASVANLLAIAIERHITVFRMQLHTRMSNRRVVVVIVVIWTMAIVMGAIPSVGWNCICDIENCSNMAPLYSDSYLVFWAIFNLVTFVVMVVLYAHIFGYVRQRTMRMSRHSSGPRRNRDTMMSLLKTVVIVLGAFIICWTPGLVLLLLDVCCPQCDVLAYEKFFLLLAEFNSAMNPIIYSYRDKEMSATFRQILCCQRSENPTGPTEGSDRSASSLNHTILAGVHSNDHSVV

The term IC50 denotes the concentration that inhibits the measured activity by half. In the case of `CCC(C)c1ncnc(NCc2c(-c3ccc(O[C@H]4CCC[C@H](C(=O)O)C4)c(C)n3)nnn2C)n1` (mixture of isomers) [Example 197, (1S,3S)-3-((6-(5-(((4-(sec-Butyl)-1,3,5-triazin-2-yl)amino)methyl)-1-methyl-1H-1,2,3-triazol-4-yl)-2-methylpyridin-3-yl)oxy)cyclohexane-1-carboxylic acid], the IC50 was found to be 94 nM. For `CCC(C)c1nc(O)nc(NCc2c(-c3ccc(O[C@H]4CCC[C@H](C(=O)O)C4)c(C)n3)nnn2C)n1` (mixture of isomers) [Example 198, (1S,3S)-3-((6-(5-(((4-(sec-Butyl)-6-hydroxy-1,3,5-triazin-2-yl)amino)methyl)-1-methyl-1H-1,2,3-triazol-4-yl)-2-methylpyridin-3-yl)oxy) cyclohexane-1-carboxylic acid] the value was 130 nM; for `Cc1nc(-c2nnn(C)c2COc2nccc(OC3CC3)n2)ccc1O[C@H]1CCCC(C(=O)O)C1` (mixture of isomers) [Example 251, (3S)-3-((6-(5-(((4-cyclopropoxypyrimidin-2-yl)oxy)methyl)-1-methyl-1H-1,2,3-triazol-4-yl)-2-methylpyridin-3-yl)oxy)cyclohexane-1-carboxylic acid], 41 nM.

For the molecule `Cc1nc(-c2nnn(C)c2COc2nccc(OC(C)C)n2)ccc1O[C@H]1CCC[C@@H](C(=O)O)C1` (single isomer, unassigned) [Example 249], the IC50 came to 67 nM. For `Cc1nc(-c2nnn(C)c2COc2nccc(OC(C)C)n2)ccc1O[C@H]1CCC[C@H](C(=O)O)C1` (single isomer, unassigned) [Example 250] the value was 41 nM; for `Cc1nc(-c2nnn(C)c2CNc2cc(-c3ccccc3)ccn2)ccc1O[C@H]1CCC[C@H](C(=O)O)C1` (stereo in doubt) [Example 2, (1S,3S)-3-((2-Methyl-6-(1-methyl-5-(((4-phenylpyridin-2-yl)amino)methyl)-1H-1,2,3-triazol-4-yl)pyridin-3-yl)oxy)cyclohexanecarboxylic acid], 32 nM. Consider `Cc1nc(-c2nnn(C)c2CNc2nccc(C(C)(C)C)n2)ccc1O[C@H]1CCC[C@H](C(=O)O)C1` [Example 1, (1S,3S)-3-((6-(5-(((4-(tert-Butyl)pyrimidin-2-yl)amino)methyl)-1-methyl-1H-1,2,3-triazol-4-yl)-2-methylpyridin-3-yl)oxy)cyclohexanecarboxylic acid], for which the IC50 was found to be 26 nM. Consider `Cc1nc(-c2nnn(C)c2CNc2ncnc(-c3ccccc3)n2)ccc1O[C@H]1CCC[C@H](C(=O)O)C1` [Example 3, (1S,3S)-3-((2-Methyl-6-(1-methyl-5-(((4-phenyl-1,3,5-triazin-2-yl)amino)methyl)-1H-1,2,3-triazol-4-yl)pyridin-3-yl)oxy)cyclohexanecarboxylic acid], for which the IC50 was found to be 120 nM. For `COc1nc(NCc2c(-c3ccc(O[C@H]4CCC[C@H](C(=O)O)C4)c(C)n3)nnn2C)nc(-c2ccccc2)n1` [Example 4, (1S,3S)-3-((6-(5-(((4-Methoxy-6-phenyl-1,3,5-triazin-2-yl)amino)methyl)-1-methyl-1H-1,2,3-triazol-4-yl)-2-methylpyridin-3-yl)oxy)cyclohexanecarboxylic acid], the IC50 is 153 nM. In the case of `Cn1nnc(-c2cnc(O[C@H]3CCC[C@H](C(=O)O)C3)cn2)c1CNc1nccc(C(C)(C)C)n1` [Example 5, (1S,3S)-3-((5-(5-(((4-(tert-butyl)pyrimidin-2-yl)amino)methyl)-1-methyl-1H-1,2,3-triazol-4-yl)pyrazin-2-yl)oxy)cyclohexane-1-carboxylic acid], the IC50 was 361 nM. For `CCCc1ccnc(NCc2c(-c3ccc(O[C@H]4CCC[C@H](C(=O)O)C4)c(C)n3)nnn2C)n1` [Example 7] the value was 8 nM. For `Cc1nc(-c2nnn(C)c2CNc2nccc(C(C)C)n2)ccc1O[C@H]1CCC[C@H](C(=O)O)C1` [Example 8] the value was 10 nM; for `Cc1nc(-c2nnn(C)c2CNc2nccc(C3CC3)n2)ccc1O[C@H]1CCC[C@H](C(=O)O)C1` [Example 9], 36 nM; for `Cc1nc(-c2nnn(C)c2CNc2nccc(C3CCC3)n2)ccc1O[C@H]1CCC[C@H](C(=O)O)C1` [Example 10], 11 nM. With `Cc1nc(-c2nnn(C)c2CNc2nccc(Cc3ccccc3)n2)ccc1O[C@H]1CCC[C@H](C(=O)O)C1` [Example 11], the IC50 amounted to 103 nM. Next, `COc1ccnc(NCc2c(-c3ccc(O[C@H]4CCC[C@H](C(=O)O)C4)c(C)n3)nnn2C)n1` [Example 12]: 56 nM; `CCOc1ccnc(NCc2c(-c3ccc(O[C@H]4CCC[C@H](C(=O)O)C4)c(C)n3)nnn2C)n1` [Example 13]: 19 nM. Next, `Cc1nc(-c2nnn(C)c2CNc2nccc(OC(C)C)n2)ccc1O[C@H]1CCC[C@H](C(=O)O)C1` [Example 14]: 46 nM; `Cc1nc(-c2nnn(C)c2CNc2nccc(Oc3ccccc3)n2)ccc1O[C@H]1CCC[C@H](C(=O)O)C1` [Example 15]: 8 nM. Turning to `Cc1cc(OC(C)C)nc(NCc2c(-c3ccc(O[C@H]4CCC[C@H](C(=O)O)C4)c(C)n3)nnn2C)n1` [Example 16], the IC50 was found to be 29 nM. Next, `Cc1nc(-c2nnn(C)c2CNc2nccc(N3CCCC3)n2)ccc1O[C@H]1CCC[C@H](C(=O)O)C1` [Example 17]: 206 nM; `Cc1nc(-c2nnn(C)c2CNc2nccc(C(F)(F)F)n2)ccc1O[C@H]1CCC[C@H](C(=O)O)C1` [Example 18]: 66 nM.

On to `Cc1cnc(NCc2c(-c3ccc(O[C@H]4CCC[C@H](C(=O)O)C4)c(C)n3)nnn2C)nc1-c1ccccc1` [Example 19], for which the IC50 worked out at 8 nM. For `Cc1nc(-c2nnn(C)c2CNc2nccc(-c3ccccc3F)n2)ccc1O[C@H]1CCC[C@H](C(=O)O)C1` [Example 20], the IC50 is 16 nM. Take `Cc1nc(-c2nnn(C)c2CNc2nccc(-c3ccccn3)n2)ccc1O[C@H]1CCC[C@H](C(=O)O)C1` [Example 21]: the half-inhibitory concentration (IC50) was found to be 101 nM. Turning to `COc1ccccc1-c1ccnc(NCc2c(-c3ccc(O[C@H]4CCC[C@H](C(=O)O)C4)c(C)n3)nnn2C)n1` [Example 22], the IC50 came to 219 nM. In the case of `Cc1nc(-c2nnn(C)c2CNc2cc(C(C)(C)C)ncn2)ccc1O[C@H]1CCC[C@H](C(=O)O)C1` [Example 23], the IC50 is 1050 nM. Next, `COc1cc(NCc2c(-c3ccc(O[C@H]4CCC[C@H](C(=O)O)C4)c(C)n3)nnn2C)ncn1` [Example 24]: 218 nM; `Cc1nc(-c2nnn(C)c2CNc2ccnc(OC(C)C)n2)ccc1O[C@H]1CCC[C@H](C(=O)O)C1` [Example 25]: 145 nM. Consider `Cn1nnc(-c2ccc(O[C@H]3CCC[C@H](C(=O)O)C3)cn2)c1CNc1nccc(-c2ccccc2)n1` [Example 26], for which the 50% inhibitory concentration (IC50) was 8 nM.

Consider `Cn1nnc(-c2cnc(O[C@H]3CCC[C@H](C(=O)O)C3)cn2)c1CNc1nccc(-c2ccccc2)n1` [Example 27], for which the IC50 was determined as 26 nM. For `Cn1nnc(-c2ccc(O[C@H]3CCC[C@H](C(=O)O)C3)cn2)c1CNc1nccc(-c2ccccc2F)n1` [Example 28] the value was 19 nM; for `Cn1nnc(-c2ccc(O[C@H]3CCC[C@H](C(=O)O)C3)cn2)c1CNc1nccc(-c2ccccn2)n1` [Example 29], 39 nM. For `Cc1cnc(NCc2c(-c3ccc(O[C@H]4CCC[C@H](C(=O)O)C4)cn3)nnn2C)nc1-c1ccccn1` [Example 30] the value was 300 nM; for `Cn1nnc(-c2ccc(O[C@H]3CCC[C@H](C(=O)O)C3)cn2)c1CNc1nccc(Oc2ccccc2)n1` [Example 31], 178 nM. `Cn1nnc(-c2ccc(O[C@H]3CCC[C@H](C(=O)O)C3)cn2)c1CNc1nccc(-c2cccnc2)n1` [Example 32]: the IC50 stood at 277 nM. Turning to `Cn1nnc(-c2ccc(O[C@H]3CCC[C@H](C(=O)O)C3)cn2)c1CNc1nccc(-n2cccn2)n1` [Example 34], the IC50 turned out to be 1130 nM.

With `CC(C)c1ccnc(NCc2c(-c3ccc(O[C@H]4CCC[C@H](C(=O)O)C4)cn3)nnn2C)n1` [Example 35], the IC50 is 28 nM.

As to `COc1ccccc1-c1ccnc(NCc2c(-c3ccc(O[C@H]4CCC[C@H](C(=O)O)C4)cn3)nnn2C)n1` [Example 36], the IC50 turned out to be 59 nM. For `Cc1cc(-c2ccccn2)nc(NCc2c(-c3ccc(O[C@H]4CCC[C@H](C(=O)O)C4)cn3)nnn2C)n1` [Example 37] the value was 166 nM; for `Cn1nnc(-c2ccc(O[C@H]3CCC[C@H](C(=O)O)C3)cn2)c1CNc1nccc(C(C)(C)C)n1` [Example 38], 36 nM; for `Cc1nc(-c2nnn(C)c2CNc2nccc(-c3ccccc3)n2)ccc1O[C@H]1CCC[C@H](C(=O)O)C1` [Example 39], 41 nM. For `CCc1ccnc(NCc2c(-c3ccc(O[C@H]4CCC[C@H](C(=O)O)C4)c(C)n3)nnn2C)n1` [Example 40], the IC50 worked out at 46 nM.

As to `Cc1nc(-c2nnn(C)c2CNc2ncc(F)c(NCC(F)(F)F)n2)ccc1O[C@H]1CCC[C@H](C(=O)O)C1` [Example 41], the IC50 was 208 nM. For `Cc1nc(-c2nnn(C)c2CNc2ncc(F)c(N3CCC3)n2)ccc1O[C@H]1CCC[C@H](C(=O)O)C1` [Example 42] the value was 218 nM.

The record behind these values is US11267800B2, “Cyclohexyl acid triazole azines as LPA antagonists” (BRISTOL-MYERS SQUIBB COMPANY, priority 2017, dated 2022).
